The record followed here is patent US20260062412A1, “NITROGEN-CONTAINING HETEROCYCLIC COMPOUND HAVING MYT1 INHIBITORY ACTIVITY” (CHUGAI SEIYAKU KABUSHIKI KAISHA, priority 2023, published 2026).

Each structure is given as a SMILES string.

The target of assay [1] is T1, MYT1 protein (Homo sapiens (Human), UniProt Q99640). As to the kind of experiment: MYT1 kinase activity inhibition test (ELISA, phosphorylation of Y15 of CDK1). Type of assay: biochemical. The following applies: phosphorylation level of Y15 of CDK1 protein caused by MYT1 protein, 60 minutes. How it is done:
The MYT1 kinase activity inhibitory capacity of each compound was evaluated by evaluating the phosphorylation level of Y15 of CDK1 protein caused by MYT1 protein, by ELISA. The kit of CycLex Weel Kinase Assay/Inhibitor Screening Kit Ver. 3 (manufactured by MBL, CY-1172V3) was used. Using Kinase Buffer, 10 μL of 5 nM MYT1 protein (manufactured by Carna Biosciences, Inc.) was prepared. In addition, 30 μL of 83.3 μM of ATP was prepared using Kinase Buffer. In addition, 10 μL of each compound was diluted to each concentration using Kinase Buffer. 30 μL of ATP was added to the plate of the kit, and thereafter, 10 μL of each compound was added thereto. Further, 10 μL of the diluted MYT1 protein solution was added thereto, and then the mixture was mixed, which was allowed to stand at room temperature for 60 minutes. The reaction solution was removed from each well, and each well was washed using Wash Buffer. After Wash Buffer was removed, 100 μL of HRP conjugated Anti-phospho-tyrosine antibody was added to each well, which was allowed to stand at room temperature for 60 minutes. Thereafter, the reaction solution was removed from each well, and each well was washed using Wash Buffer. After Wash Buffer was removed, 100 μL of Substrate Reagent was added to each well, which was allowed to stand at room temperature for 8 minutes. Thereafter, 100 μL of Stop Solution (1 N sulfuric acid) was added to each well according to the manual. Absorbances at 450 nm and 590 nm were measured using Envision (manufactured by PerkinElmer). The phosphorylation level of CDK1 protein was evaluated for each well by subtracting the absorbance at 590 nm from the absorbance at 450 nm. The inhibition rate of each compound added at each concentration was calculated by setting the signal when the compound was not added as 100% and the signal when MYT1 protein was not added as 0%, and the calculation results of IC50 were shown in Table 4.

Assay [2] has as its target T1, MYT1 protein. As to the kind of experiment: Test for binding to ATP binding site of MYT1 (Kinase Tracer 178 / Eu-Anti-GST antibody TR-FRET). The following applies: ATP binding site of MYT1, 30 minutes at room temperature.
The subject of the next assay is LU65. Nature of the assay: Cytotoxicity test with pemetrexed upon addition of each example compound (CellTiter-Glo). Particulars: combination with pemetrexed, LU65 cells, 7 days; maximum value, at the MYT1 inhibitor and pemetrexed concentrations. The format is cell-based, human. The gist of the method:
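LU65 lung cancer cells (RB1 S82* truncation, reduced RB1 function) in RPMI-1640/10% FBS were treated with pemetrexed plus each compound over concentration series, 7 days at 37 °C. ATP measured by CellTiter-Glo luminescence; survival relative to DMSO after blank subtraction, cytotoxicity = 100% minus survival.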

T1 sequence (Q99640 whole entry): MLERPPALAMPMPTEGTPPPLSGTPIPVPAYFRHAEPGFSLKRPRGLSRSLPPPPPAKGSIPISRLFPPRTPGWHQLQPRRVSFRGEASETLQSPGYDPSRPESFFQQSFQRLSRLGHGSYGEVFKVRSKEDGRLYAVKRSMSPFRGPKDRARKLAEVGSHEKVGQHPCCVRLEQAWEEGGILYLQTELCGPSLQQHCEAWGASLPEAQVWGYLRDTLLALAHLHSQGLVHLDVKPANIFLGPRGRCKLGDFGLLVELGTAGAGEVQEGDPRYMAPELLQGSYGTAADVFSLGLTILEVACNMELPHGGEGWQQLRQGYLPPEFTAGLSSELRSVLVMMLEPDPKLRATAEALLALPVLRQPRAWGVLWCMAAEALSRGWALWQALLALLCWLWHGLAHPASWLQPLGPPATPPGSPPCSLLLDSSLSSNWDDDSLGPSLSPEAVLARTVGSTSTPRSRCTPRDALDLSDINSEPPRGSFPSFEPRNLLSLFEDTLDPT

In the case of `Nc1c(-c2ccc(F)c3[nH]ncc23)c2ccc3ncccc3c2[nH]c1=O` [Compound C83, 3-Amino-4-(7-fluoro-1H-indazol-4-yl)-1H-1,7-phenanthrolin-2-one], the IC50 against MYT1 protein [1] was 0.2 nM. At MYT1 protein [2], this molecule gave an IC50 of 2.4 nM. Besides, in the assay with LU65, the “Bliss Score (Max)” value stood at 54% and the “HSA Score (MAX)” value was found to be 66%.
In turn, `Nc1c(-c2ccc(F)c3[nH]ncc23)c2cc(C3CC3)c3ncccc3c2[nH]c1=O` [Compound C84, 3-amino-6-cyclopropyl-4-(7-fluoro-1H-indazol-4-yl)-1H-1,7-phenanthrolin-2-one] registered an IC50 at MYT1 protein [1] of 0.25 nM. The molecule also showed an IC50 on MYT1 protein [2] of 2.3 nM. Further, in the assay with LU65, the “Bliss Score (Max)” value is on record as 68% and the “HSA Score (MAX)” value is given as 70%.
`Cc1cc2c(-c3ccc(F)c4[nH]ncc34)c(N)c(=O)[nH]c2c2cccnc12` [Compound C85, 3-amino-4-(7-fluoro-1H-indazol-4-yl)-6-methyl-1H-1,7-phenanthrolin-2-one] registered an IC50 against MYT1 protein [1] of 0.19 nM. On MYT1 protein [2], this molecule gave an IC50 of 2.5 nM. In the assay on LU65, the “Bliss Score (Max)” value worked out at 59% and the “HSA Score (MAX)” value is given as 58%.
For `CCc1cc2c(-c3ccc(F)c4[nH]ncc34)c(N)c(=O)[nH]c2c2cccnc12` [Compound C86, 3-Amino-6-ethyl-4-(7-fluoro-1H-indazol-4-yl)-1H-1,7-phenanthrolin-2-one], in that order: less than 0.17 nM, 4.6 nM, 67% and 71%.
On the same counts, the results for `Cn1cc(-c2cc3c(-c4ccc(F)c5[nH]ncc45)c(N)c(=O)[nH]c3c3cccnc23)cn1` [Compound C88, 3-Amino-4-(7-fluoro-1H-indazol-4-yl)-6-(1-methylpyrazol-4-yl)-1H-1,7-phenanthrolin-2-one] are less than 0.17 nM, 4.4 nM, 53% and 61%.
On the same counts, the results for `CC#Cc1cc2c(-c3ccc(F)c4[nH]ncc34)c(N)c(=O)[nH]c2c2cccnc12` [Compound C90, 3-Amino-4-(7-fluoro-1H-indazol-4-yl)-6-prop-1-inyl-1H-1,7-phenanthrolin-2-one] are 0.42 nM, 14 nM, 50% and 60%.
Turning to `Nc1c(-c2ccc(F)c3[nH]ncc23)c2cc(C3CCC3)c3ncccc3c2[nH]c1=O` [Compound C91, 3-Amino-6-cyclobutyl-4-(7-fluoro-1H-indazol-4-yl)-1H-1,7-phenanthrolin-2-one], 1.1 nM corresponded to half-maximal inhibition on MYT1 protein [1] (IC50). The molecule also had an IC50 at MYT1 protein [2] of 10 nM. Besides, in the assay on LU65, the “Bliss Score (Max)” value is 59% and the “HSA Score (MAX)” value is 61%.
On the same counts, the results for `Nc1c(-c2ccc(F)c3[nH]ncc23)c2cc(C3CCCC3)c3ncccc3c2[nH]c1=O` [Compound C92, 3-Amino-6-cyclopentyl-4-(7-fluoro-1H-indazol-4-yl)-1H-1,7-phenanthrolin-2-one] are 1.7 nM, 19 nM, 56% and 68%.
In turn, `Nc1c(-c2ccc(F)c3[nH]ncc23)c2cc(C3CCOCC3)c3ncccc3c2[nH]c1=O` [Compound C98, 3-Amino-4-(7-fluoro-1H-indazol-4-yl)-6-(oxan-4-yl)-1H-1,7-phenanthrolin-2-one] gave an IC50 on MYT1 protein [1] of less than 4.6 nM. On MYT1 protein [2], this molecule returned an IC50 of 2.8 nM. In the assay on LU65, the “Bliss Score (Max)” value was 46% and the “HSA Score (MAX)” value came to 53%.
At MYT1 protein [1], `Nc1c(-c2ccc(F)c3[nH]ncc23)c2cc(/C=C/CCO)c3ncccc3c2[nH]c1=O` [Compound C100, 3-Amino-4-(7-fluoro-1H-indazol-4-yl)-6-[(E)-4-hydroxybut-1-enyl]-1H-1,7-phenanthrolin-2-one] showed an IC50 of 5.5 nM. The IC50 on MYT1 protein [2] was 1.5 nM. Moreover, in the assay on LU65, the “Bliss Score (Max)” value was 46% and the “HSA Score (MAX)” value is reported as 50%.
For `Nc1c(-c2ccc(F)c3[nH]ncc23)c2cc(C3CCC4(CC3)OCCO4)c3ncccc3c2[nH]c1=O.O=C(O)C(F)(F)F` [Compound C101, 3-Amino-6-(1,4-dioxaspiro[4.5]decan-8-yl)-4-(7-fluoro-1H-indazol-4-yl)-1H-1,7-phenanthrolin-2-one 2,2,2-trifluoroacetate], in that order: 7.1 nM, 6.1 nM, 46% and 64%.
For `CC(C)(O)C#Cc1cc2c(-c3ccc(F)c4[nH]ncc34)c(N)c(=O)[nH]c2c2cccnc12` [Compound C102, 3-Amino-4-(7-fluoro-1H-indazol-4-yl)-6-(3-hydroxy-3-methylbut-1-inyl)-1H-1,7-phenanthrolin-2-one], in that order: less than 4.6 nM, 3.8 nM, 36% and 49%.
On MYT1 protein [1], `Nc1c(-c2ccc(F)c3[nH]ncc23)c2cc(C3CCN(C4CCC4)CC3)c3ncccc3c2[nH]c1=O` [Compound C134, 3-Amino-6-(1-cyclobutylpiperidin-4-yl)-4-(7-fluoro-1H-indazol-4-yl)-1H-1,7-phenanthrolin-2-one] registered an IC50 of 7.6 nM. The IC50 at MYT1 protein [2] came to 3.6 nM. Besides, in the assay on LU65, the “Bliss Score (Max)” value came out at 49% and the “HSA Score (MAX)” value is listed as 60%.
Take `Nc1c(-c2ccc(F)c3[nH]ncc23)c2cc(C3CCN(C4COC4)CC3)c3ncccc3c2[nH]c1=O` [Compound C135, 3-Amino-4-(7-fluoro-1H-indazol-4-yl)-6-[1-(oxetan-3-yl)piperidin-4-yl]-1H-1,7-phenanthrolin-2-one]: the IC50 was less than 4.6 nM on MYT1 protein [1] and 2.3 nM at MYT1 protein [2]. The “Bliss Score (Max)” value in the assay with LU65 was found to be 48%. For the same molecule, the “HSA Score (MAX)” value with LU65 is 58%.
At MYT1 protein [1], `CC(C)N1CCC(c2cc3c(-c4ccc(F)c5[nH]ncc45)c(N)c(=O)[nH]c3c3cccnc23)CC1.O=CO` [Compound C136, 3-Amino-4-(7-fluoro-1H-indazol-4-yl)-6-(1-propan-2-ylpiperidin-4-yl)-1H-1,7-phenanthrolin-2-one; formate] showed an IC50 of 8.3 nM. This molecule also displayed an IC50 on MYT1 protein [2] of 3.4 nM. In the assay on LU65, the “Bliss Score (Max)” value was found to be 45% and the “HSA Score (MAX)” value was 57%.
`Nc1c(-c2ccc(F)c3[nH]ncc23)c2cc(C3CCN(C4CCOCC4)CC3)c3ncccc3c2[nH]c1=O` [Compound C137, 3-Amino-4-(7-fluoro-1H-indazol-4-yl)-6-[1-(oxan-4-yl)piperidin-4-yl]-1H-1,7-phenanthrolin-2-one] yielded an IC50 at MYT1 protein [1] of 7.7 nM. Also, the IC50 on MYT1 protein [2] was 4.7 nM. Moreover, in the assay with LU65, the “Bliss Score (Max)” value is reported as 45% and the “HSA Score (MAX)” value is given as 56%.
The molecule `CN1CCC(c2cc3c(-c4ccc(F)c5[nH]ncc45)c(N)c(=O)[nH]c3c3cccnc23)CC1` [Compound C138, 3-Amino-4-(7-fluoro-1H-indazol-4-yl)-6-(1-methylpiperidin-4-yl)-1H-1,7-phenanthrolin-2-one] showed an IC50 against MYT1 protein [1] of less than 4.6 nM. The same molecule displayed an IC50 at MYT1 protein [2] of 2 nM. Besides, in the assay with LU65, the “Bliss Score (Max)” value came to 73% and the “HSA Score (MAX)” value is on record as 73%.
`Nc1c(-c2ccc(F)c3[nH]ncc23)c2cc(C3CCC(=O)CC3)c3ncccc3c2[nH]c1=O` [Compound C139, 3-Amino-4-(7-fluoro-1H-indazol-4-yl)-6-(4-oxocyclohexyl)-1H-1,7-phenanthrolin-2-one] came in with a half-inhibitory concentration (IC50) against MYT1 protein [1] of 19 nM. Moreover, the IC50 at MYT1 protein [2] turned out to be 3.3 nM. For the same molecule, in the assay with LU65, the “Bliss Score (Max)” value is reported as 46% and the “HSA Score (MAX)” value stood at 54%.
For the molecule `Nc1c(-c2ccc(F)c3[nH]ncc23)c2cc([C@H]3CC[C@H](O)CC3)c3ncccc3c2[nH]c1=O` [Compound C140, 3-Amino-4-(7-fluoro-1H-indazol-4-yl)-6-((1r, 4r)-4-hydroxycyclohexyl)-1H-1,7-phenanthrolin-2-one], the values for the IC50 at MYT1 protein [1] and at MYT1 protein [2] were less than 4.6 nM and 1.7 nM, respectively. The “Bliss Score (Max)” value with LU65 is given as 73%. In addition, in the assay on LU65, the “HSA Score (MAX)” value amounted to 76%.
On the same counts, the results for `Nc1c(-c2ccc(F)c3[nH]ncc23)c2cc([C@H]3CC[C@@H](O)CC3)c3ncccc3c2[nH]c1=O` [Compound C141, 3-Amino-4-(7-fluoro-1H-indazol-4-yl)-6-((1s, 4s)-4-hydroxycyclohexyl)-1H-1,7-phenanthrolin-2-one] are 11 nM, 4.9 nM, 78% and 72%.
